Test system: Plasmodium berghei
Assay: Luciferase/luciferin-expressing antifolate-resistant parasites were used to infect a culture of HepG2 cells that were pre-incubated with compounds. Infected hepatocytes emit light due to the luciferase reaction. Assay results are presented as the percent inhibition of light emission compared to control. […]
Format: functional
Conditions: sporozoite; for IC90: read-out: LUCIFERASE INFECTION ASSAY - IC90
[1] = read-out: LUCIFERASE INFECTION ASSAY - IC50

SMILES	IC50 [1]	IC90	other results
CCCn1c(N)c(N2CCCCC2)c(=O)n(Cc2nc(N)nc(Nc3ccc(C)cc3)n2)c1=O	3.72 µM	4.61 µM	
COc1cccc(-c2cn3c(-c4ccccc4Cl)cnc3cn2)c1F		6.25 µM	IC50 (PBLUC_HILL_SLOPE 4, PBLUC_R_SQUARED 0.571, read-out: LUCIFERASE INFECTION ASSAY - IC50): 3.61 µM
C=S(=O)(NC(=O)c1ccc(C(F)(F)F)cc1)c1ccccc1 (configuration not stated)	> 10.1 µM	> 10.1 µM	
CSc1ncc(Nc2nc(-c3ccccc3)c(-c3ccccc3)s2)cn1		4.18 µM	IC50 (PBLUC_HILL_SLOPE 14.9, PBLUC_R_SQUARED 0.41, read-out: LUCIFERASE INFECTION ASSAY - IC50): 3.61 µM
Cc1cc(C)c(S(=O)(=O)N2CCN(C(=O)CCCOc3ccc(Cl)c(C)c3)CC2)c(C)c1	> 10 µM	> 10 µM	
COc1cc2nc(-c3ccccc3)nc(N3CCN(c4ccncc4)CC3)c2cc1OC	> 10 µM	> 10 µM	
Cc1cc(C(O)(C(F)(F)F)C(F)(F)F)c(C)n1-c1ccc(N(C)C)cc1		> 10 µM	IC50 (HEPG2TOX_HILL_SLOPE 5.45, HEPG2TOX_R_SQUARED 0.58, PBLUC_HILL_SLOPE 4.49, PBLUC_R_SQUARED 0.403, read-out: LUCIFERASE INFECTION ASSAY - IC50): 7.53 µM
Clc1ccccc1/C=C/c1nc(-c2ccccn2)no1		> 11.6 µM	IC50 (FFLUC_HILL_SLOPE 3.15, FFLUC_R_SQUARED 0.695, PBLUC_HILL_SLOPE 0.408, PBLUC_R_SQUARED 0.784, read-out: LUCIFERASE INFECTION ASSAY - IC50): 0.446 µM
CCn1c(NC(=O)c2csc(Br)c2)nc2ccccc21		> 10 µM	IC50 (PBLUC_HILL_SLOPE 0.956, PBLUC_R_SQUARED 0.162, read-out: LUCIFERASE INFECTION ASSAY - IC50): 5.44 µM
CN(Cc1ccc(C(=O)NC2CC2)cc1)c1ncccc1[N+](=O)[O-]		6.56 µM	IC50 (PBLUC_HILL_SLOPE 96.1, PBLUC_R_SQUARED 0.262, read-out: LUCIFERASE INFECTION ASSAY - IC50): 6.41 µM
CC(C)(C)S(=O)(=O)/C(C#N)=C/Nc1ccc(OC(F)(F)F)cc1	> 9.47 µM	> 9.47 µM	
COc1ccccc1/C=C(/C(=O)OCc1cc(=O)n2cc(C)ccc2n1)c1ccccc1		> 10 µM	IC50 (PBLUC_HILL_SLOPE 4.19, PBLUC_R_SQUARED 0.0967, read-out: LUCIFERASE INFECTION ASSAY - IC50): 6.55 µM
O=C(Nc1ccc2c(c1)OC1(CCCC1)O2)N1CCN(c2ccc(O)cc2)CC1		4.23 µM	IC50 (HEPG2TOX_HILL_SLOPE 12.8, HEPG2TOX_R_SQUARED 0.476, PBLUC_HILL_SLOPE 2.26, PBLUC_R_SQUARED 0.894, read-out: LUCIFERASE INFECTION ASSAY - IC50): 1.6 µM
O=C(OCc1cnn(-c2ccccc2)c1)c1cc([N+](=O)[O-])ccc1N1CCCC1		> 10 µM	IC50 (HEPG2TOX_HILL_SLOPE 1.67, HEPG2TOX_R_SQUARED 0.935, PBLUC_HILL_SLOPE 0.776, PBLUC_R_SQUARED 0.413, read-out: LUCIFERASE INFECTION ASSAY - IC50): 9.4 µM
COc1cccc(C(=O)CC2C(=O)Nc3ccccc32)c1 (configuration not stated)		11.4 µM	IC50 (HEPG2TOX_HILL_SLOPE 18.2, HEPG2TOX_R_SQUARED 0.892, PBLUC_HILL_SLOPE 11.5, PBLUC_R_SQUARED 0.65, read-out: LUCIFERASE INFECTION ASSAY - IC50): 9.38 µM
NC(=O)c1cccc(-c2cn3c(-c4ccc(F)c(Cl)c4)cnc3cn2)c1		> 9 µM	IC50 (PBLUC_HILL_SLOPE 2.55, PBLUC_R_SQUARED 0.396, read-out: LUCIFERASE INFECTION ASSAY - IC50): 5.28 µM
c1cnc2ccc(-c3cnc4cnc(-c5ccsc5)cn34)cc2c1		> 10 µM	IC50 (HEPG2TOX_HILL_SLOPE 5.76, HEPG2TOX_R_SQUARED 0.0288, PBLUC_HILL_SLOPE 1.24, PBLUC_R_SQUARED 0.576, read-out: LUCIFERASE INFECTION ASSAY - IC50): 3.87 µM
CC1CC(OCC(O)CN2CCN(c3ccc(F)cc3)CC2)CC(C)(C)C1 (configuration not stated)		> 7.31 µM	IC50 (FFLUC_HILL_SLOPE 15.4, FFLUC_R_SQUARED 0.216, PBLUC_HILL_SLOPE 1.14, PBLUC_R_SQUARED 0.115, read-out: LUCIFERASE INFECTION ASSAY - IC50): > 7.31 µM
CCCCn1nc(C)c(C(=O)Nc2nc3ccccc3[nH]2)c1Cl		> 10 µM	IC50 (PBLUC_HILL_SLOPE 0.43, PBLUC_R_SQUARED 0.84, read-out: LUCIFERASE INFECTION ASSAY - IC50): 0.0912 µM
COc1ccc(CNc2nc3cnc(Nc4ccc(F)c(Cl)c4)cc3n2C)cc1OC	> 10 µM	> 10 µM	
CCCCc1nc2ccccc2n1CC(=O)Nc1cc(S(=O)(=O)N(C)C)ccc1OC		> 10 µM	IC50 (HEPG2TOX_HILL_SLOPE 7.99, HEPG2TOX_R_SQUARED 0.0779, PBLUC_HILL_SLOPE 2.22, PBLUC_R_SQUARED 0.125, read-out: LUCIFERASE INFECTION ASSAY - IC50): > 10 µM

SMILES	IC50 [1]	IC90	other results
O=C(Nc1ccccc1Sc1ncc([N+](=O)[O-])s1)c1cccs1		> 9.08 µM	IC50 (FFLUC_HILL_SLOPE 1.44, FFLUC_R_SQUARED 0.479, read-out: LUCIFERASE INFECTION ASSAY - IC50): > 9.08 µM
Cc1ccc(C(C)CCN2CCc3c(c(C(=O)NCc4nccs4)nn3Cc3ccccc3)C2)o1 (configuration not stated)	> 6.74 µM	> 6.74 µM	
COc1cc(-c2nc3ccc(NC(=O)c4c(C)noc4C)cn3n2)cc(OC)c1OC	> 10 µM	> 10 µM	
CCOc1ccccc1N1CCN(CC(=O)Nc2cc(C)ccc2C)CC1	> 10 µM	> 10 µM	
Cc1cc2nnc(SC(C)C(=O)Nc3ccc([N+](=O)[O-])cc3C(F)(F)F)n2c2ccccc12 (configuration not stated)	> 10 µM	> 10 µM	
Cc1cc(C(=O)CN(C)Cc2nc(=O)c3ccccc3[nH]2)c(C)n1Cc1ccc(F)cc1		> 10 µM	IC50 (PBLUC_HILL_SLOPE 13.1, PBLUC_R_SQUARED 0.161, read-out: LUCIFERASE INFECTION ASSAY - IC50): 8.98 µM
CC(C)CC(=O)NNc1ccnc2cc(Cl)ccc12		4.29 µM	IC50 (HEPG2TOX_HILL_SLOPE 0.439, HEPG2TOX_R_SQUARED 0.287, PBLUC_HILL_SLOPE 11, PBLUC_R_SQUARED 0.716, read-out: LUCIFERASE INFECTION ASSAY - IC50): 3.51 µM
Cc1cccc(C2NC(=O)NC3=C2C(=O)N(Cc2ccc(F)cc2)C3)c1 (configuration not stated)	> 10 µM	> 10 µM	
CC(C)N(C(=O)CSc1nnc(-c2cccc(S(=O)(=O)N3CCOCC3)c2)n1-c1ccc(F)cc1)c1ccccc1	> 10 µM	> 10 µM	
CC(C)(C)c1cc2nc(C(F)(F)F)cc(NNC(=O)Nc3ccccc3)n2n1		> 8.41 µM	IC50 (PBLUC_HILL_SLOPE 3.27, PBLUC_R_SQUARED 0.167, read-out: LUCIFERASE INFECTION ASSAY - IC50): 5.36 µM
CC(C)c1ccc(NC(=O)Nc2nc(C(N)CCc3ccccc3)cs2)cc1 (configuration not stated)		7.09 µM	IC50 (HEPG2TOX_HILL_SLOPE 3.95, HEPG2TOX_R_SQUARED 0.94, PBLUC_HILL_SLOPE 4.47, PBLUC_R_SQUARED 0.626, read-out: LUCIFERASE INFECTION ASSAY - IC50): 4.34 µM
CN(NC(=O)c1cccc(C(F)(F)F)c1)c1c(C#N)c(C(F)(F)F)nn1C	> 8.43 µM	> 8.43 µM	
O=C(Nc1ncccc1O)c1ccc(CN2C(=O)c3ccccc3S2(=O)=O)cc1		> 10 µM	IC50 (PBLUC_HILL_SLOPE 1.72, 0.775, PBLUC_R_SQUARED 0.614, 0.500, read-out: LUCIFERASE INFECTION ASSAY - IC50): 4.22 µM
Cc1nnc(SCCCc2nc(-c3ccncc3)no2)n1Cc1ccccc1	> 10 µM	> 10 µM	
N#CCNc1ccccc1 [(PHENYLAMINO)ACETONITRILE]	> 10 µM	> 10 µM	
Cn1nc(-c2ccc(S(=O)(=O)NCc3cccnc3)s2)cc1C(F)(F)F	> 8.2 µM	> 8.2 µM	
CCCn1c(SCC(=O)N(C)C(C)c2nc3ccccc3s2)nc2sc3c(c2c1=O)CCC3 (configuration not stated)		3.37 µM	IC50 (HEPG2TOX_HILL_SLOPE 1.5, HEPG2TOX_R_SQUARED 0.705, PBLUC_HILL_SLOPE 172, PBLUC_R_SQUARED 0.534, read-out: LUCIFERASE INFECTION ASSAY - IC50): 3.33 µM
O=c1[nH]c2ccc(NCc3cc(Cl)ccc3OCc3ccc(F)cc3)cc2[nH]1	> 8.29 µM	> 8.29 µM	
Cc1cc(C)c(C#N)c(SCC(=O)N(C)Cc2cnn(-c3ccccc3)c2)n1		> 10 µM	IC50 (PBLUC_HILL_SLOPE 0.688, PBLUC_R_SQUARED 0.271, read-out: LUCIFERASE INFECTION ASSAY - IC50): 4.09 µM
Cc1c(Cl)cccc1NC(=O)CCc1nc(C(C)C)no1		> 10 µM	IC50 (FFLUC_HILL_SLOPE 18.3, FFLUC_R_SQUARED 0.35, read-out: LUCIFERASE INFECTION ASSAY - IC50): > 10 µM
